Laboratory results from patent publication US20230233584A1, “EXTENDED RELEASE 5-HT RECEPTOR AGONISTS FOR NEUROLOGICAL CONDITIONS” (Diamond Therapeutics Inc., priority 2020, published 2023).
“Also recorded” adds a separate entry of the source.

Key:
Type in all cases: in vivo
Long Evans rats [1] = assay: 5-CSRTT during 12-day minipump (extended release) dosing of poor performing rats; settings: for increase in premature behaviors: minipump (ER dosing)
Protocol: The 5-choice serial reaction time task (5-CSRTT) was used to measure attentional performance in rodents. The test design involves training animals to respond to a brief visual stimulus presented unpredictably in one of five locations. Once trained to stable performance levels, the effects of experimental manipulations on response speed and choice accuracy were measured and each are related to attentional performance. The test was used to examine aspects of response control with responding prior to stimulus onset, i.e., a premature response, becoming a measure of motor impulsivity. The test is adaptable to task modification. Variations to stimulus duration (SD, 0.03-1 s duration) and frequency of stimulus presentation (2-10 s), amongst others have become commonly used to tax performance.
72 male Long Evans rats (source: Charles River, St. Constant, QE) were trained to asymptotic performance in the 5-CSRTT over a period of approximately 2 months. The rats were trained to final stimulus duration (SD) of 0.75 s, 5 s inter-trial interval (ITI), 5 s limited hold (LH), 100 trials per session. The rats were singly housed and food restricted to ˜20 g food/day throughout the study.
While the target performance levels under these conditions was in the range of >80% accuracy, <20% omissions, individual rats show different performance levels based on attentional accuracy or measures of impulsive action. The selection phase involves selecting the “worst” 40 rats based on both attentional performance (lowest performance based on accuracy measures of % correct/% hit) and/or impulsive action ([…] levels of premature responses noted at an extended 10 s ITI schedule and also baseline testing).
During the training period, 72 rats were trained on the 5-CSRTT, and the 40 worst performers. The 40 animals with the “worst” attentional performance (lowest performance based on accuracy measures of % correct, omissions and response speed) and impulsive action (PREM responses) were selected for the experiment. These 40 poor performing rats were allocated into one of two cohorts, with N=16 rats implanted with a vehicle (saline, Group A) minipumps and N=24 implanted with minipumps primed with psilocybin.
For 12 days following pump implantation surgery, rats were assessed for performance in the 5-CSRTT under (A) standard 5-CSRTT protocol (5 s ITI, 0.75 s SD, 100 trials) on days 1-4, 6-8, 10-11 (i.e. 9 days total run under this condition), and (B) the more difficult conditions of 10 s ITI, 0.3 s SD, 100 trials. The standard conditions were tested on days 1-4, 6-8, 10-11, and the more difficult conditions were tested on post-implant days 5, 9 and 12 (i.e. 3 days total run under this condition).
The result was significant on D2 (P<0.05). In FIG. 8A, B/L refers to ‘baseline’ conditions of 5 s ITI, 0.75 SD (calculated by taking the mean of the days immediately prior to and immediately following the test day). For example, B/L1 is the mean of performance on the days before and after D1 (since D1 is test day 5, B/L is mean of days 4 and 6).

[2] = Body weight during 12-day minipump study; settings: rats
Long Evans rats [3] = assay: Progressive ratio (PR) test, Study B
Protocol: General: Experiments were conducted to test psilocybin doses in the range of 0.01-0.2 mg/kg psilocybin administered S.C. across progressive ratio (PR) and 5-choice serial reaction time task (5CSRTT) to examine the effect of psilocybin on endophenotypes of motivation and attention. In each study, a population of out-bred Long Evans rats was first tested as a group for response to the PR and 5CSRTT. Each group was then divided into subgroups by tertiles according to performance, and then exposed to various dose levels immediately prior to re-testing at various psilocybin dose levels.
The PR test is used to answer how willing the test subject is to work for food (i.e. test of motivation). A single 45 mg food pellet (i.e. reinforcer) is made available to the test animal based on lever press response. To obtain each successive pellet, the animal must make increasingly more lever presses. Typically, a progression of 2, 4, 6, 9, 12, 15, 20, 25, 32, 40, 50, 62, 77, 95, 118, etc. is used, derived from the equation:
ratio=[5×e^(0.2×reinforcer #)−5]
At some point, the animal gives up as the motor demands to obtain a single pellet are not deemed worthwhile (i.e. animal reaches “break point” defined as animal's failure to earn a food pellet in 20 minutes).
Study B: Based on Study 1 outcome, a follow-up PR study was conducted utilizing a larger cohort size (72 rats total), and incorporating a lower dose of psilocybin (0.025 mg/kg SC) (FIG. 2C and FIG. 2D). […] Separation of rats based on the lowest average break point recorded over the 7 days prior to testing identified a “low responder” subgroup of N=24 rats. […] There was no treatment effect on session duration (F3,69=2.4; P=0.07, NS), although there was trend for this to be increased at the 0.1 mg/kg dose (Veh: 15.1+2.0 min; Psilo 0.1 mg/kg: 18.7+2.5 min).

[4] = system: 5-HT2A receptor activation; assay: Motor activity and overt stereotypies during minipump dosing; settings: psilocybin minipump, 12 days, rats
Protocol: There were no changes in motor activity (distance travelled, rearing counts), or induction of overt stereotypies, including cardinal signs of 5-HT2A receptor activation (Wet Dog Shakes and Back Muscle Contractions (WDS, BMD). At the completion of 12 days testing the rats were euthanized and cardiac and brain tissue were collected and snap frozen. Histological analysis was performed for the samples.

Long Evans rats [5] = assay: 5CSRTT, acute dosing, 10 s ITI, premature (PREM) and perseverant (PSV) responses
Excerpt: Using a longer duration between stimulus and reward, the 5CSRTT study measures premature (PREM) and perseverant (PSV) responses. PREM/PSV responses were increased by increasing the ITI from 5 s (baseline) to 10 s (test condition). […] Both PREM and PSV behaviors are examples of executive cognitive function, likely involving areas of the prefrontal cortex, a brain region rich in 5-HT2A receptors.

5-HT2A receptor activity = assay: Dose finding: behavioral syndrome, wet dog shakes (WDS) and back muscle contractions (BMC); settings: rats
Protocol: Psilocybin was tested at a dose range of 0.03-10.0 mg/kg administered subcutaneously (S.C.) Behavioral syndrome including wet dog shakes (WDS) and back muscle contractions (BMC) are characteristic of 5-HT2A receptor activity and potentially indicative of psychomotor signs. […] There is a parallel between behaviors such as WDS in rats and hallucination in humans (Behavioral Neurobiology of Psychedelic Drugs, Halberstadt, Adam, Vollenweider, Franz X., Nichols, David E. (Eds.), Springer, 2018, p 161).

[6] = 0.025-0.1 mg/kg SC, all 72 rats

## CN(C)CCc1c[nH]c2cccc(OP(=O)(O)O)c12 [psilocybin, 4-phosphoryloxy-N,N-dimethyltryptamine]
Long Evans rats [1]; 10 s ITI challenge days, vs. vehicle, p=0.03
  mean performance on Days 1-3: significantly improved
Long Evans rats [1]; 10 s ITI, Challenge Day 2 (D2, test day 9), vs vehicle
  % correct / performance: significant improvement; also recorded: significant (P=0.01) increase
Long Evans rats [1]; challenging conditions 10 s ITI, 0.3 s SD, test days 5, 9 and 12, vs vehicle
  % correct responses: performed better than vehicle treated animals
Long Evans rats [1]; more taxing/challenge conditions 10 s ITI, 0.3 s SD
  increase in premature behaviors: do not have an increase in premature behaviors
Long Evans rats [1]; standard conditions
  increase in premature behaviors: do not have an increase in premature behaviors
Long Evans rats [1]; minipump, standard test conditions, over a period of time
  correct attempts: does not increase the number of correct attempts; also recorded: did not show that psilocybin caused an increase in correct attempts
[2]; Psilocybin 4 mg/mL minipump
  Body Weight, Day 1 vs. Day 12, Average: 20.6
[2]; Psilocybin 6 mg/mL minipump
  Body Weight, Day 1 vs. Day 12, Average: 19.3
[2]; Psilocybin 8 mg/mL minipump
  Body Weight, Day 1 vs. Day 12, Average: 24.4
[2]; psilocybin minipump, 12 day study course
  body weight over the study course: gaining body weight
[2]; psilocybin minipump, 12 days
  weight gain compared with placebo treated animals: gained weight to a lesser amount
Long Evans rats [3]; 0.1 mg/kg, low responder cohort
  session duration: 18.7+2.5 min
Long Evans rats [3]; [6]
  break point: no treatment group was significantly different to vehicle
  number of lever presses, session duration: no main effect of treatment
Long Evans rats [3]; 0.05-0.1 mg/kg pretreatment, low responder cohort N=24, relative to vehicle
  lever press and break point: increases in both measures
[4]
  motor activity (distance travelled, rearing counts), overt stereotypies incl. WDS and BMC: no changes
Long Evans rats [5]; 0.05 mg/kg S.C., 24 rats, p=0.05
  PREM and PSV responses: increase
Long Evans rats [5]; 0.05 and 0.1 mg/kg, low responders (N=8), p<0.01 vs vehicle
  premature responses and perseverative responses: marked increases
5-HT2A receptor activity; 0.3 mg/kg I.P and higher
  signs of behavioral syndrome (WDS/BMC): significant signs of behavior syndrome
5-HT2A receptor activity; 0.03-0.1 mg/kg S.C.
  signs of behavioral syndrome (WDS/BMC): no signs of behavioral syndrome
